The structures appear in SMILES notation. Bounds are passed on as bounds.

The EC50 is the midpoint of the concentration-response curve.

In assay [1] the target is T1, ΔF508-CFTR (Homo sapiens, UniProt P13569, DEL508-508).
T1 construct: host or cells: CFBE41o-, doxycycline-inducible
Nature of the assay: CFTR cell surface levels using HRP-tagged ΔF508-CFTR expressing CFBE cells, in the presence of a co-corrector. Format: cell-based. In short, it runs like this:
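Chemiluminescent read-out of surface HRP (15 min, dark) after PBS washes. Activity is normalized as 100×(sample−DMSO)/(3 μM co-corrector alone−DMSO).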

For assay [2], the target named is T1, ΔF508-CFTR. Nature of the assay: CFTR cell surface levels using HRP-tagged ΔF508-CFTR expressing CFBE cells, intrinsic corrector capacity. Also noted: % Activation: concentration or dose not given beside the values. The assay is classed as cell-based. An outline of the steps:
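Surface ΔF508-CFTR was measured as HRP chemiluminescence from an extracellular-loop-4 tag, expressed as percent activity between DMSO and a […] corrector control.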

Setting [3] is: HRP-tagged ΔF508-CFTR CFBE cells, in the presence of 3 μM co-corrector.
Setting [4] is: HRP-tagged ΔF508-CFTR CFBE cells, in the presence of 3 μM co-corrector, read-out: EC50.
The mark [5] stands for this setting: HRP-tagged ΔF508-CFTR expressing CFBE41o- cells, compound alone (intrinsic corrector capacity), 20 hours at 33° C.
Where [6] appears, read: HRP-tagged ΔF508-CFTR expressing CFBE41o- cells, compound alone (intrinsic corrector capacity), 20 hours at 33° C., read-out: EC50.

T1 sequence (P13569 with tags, fused parts or gaps DEL508-508): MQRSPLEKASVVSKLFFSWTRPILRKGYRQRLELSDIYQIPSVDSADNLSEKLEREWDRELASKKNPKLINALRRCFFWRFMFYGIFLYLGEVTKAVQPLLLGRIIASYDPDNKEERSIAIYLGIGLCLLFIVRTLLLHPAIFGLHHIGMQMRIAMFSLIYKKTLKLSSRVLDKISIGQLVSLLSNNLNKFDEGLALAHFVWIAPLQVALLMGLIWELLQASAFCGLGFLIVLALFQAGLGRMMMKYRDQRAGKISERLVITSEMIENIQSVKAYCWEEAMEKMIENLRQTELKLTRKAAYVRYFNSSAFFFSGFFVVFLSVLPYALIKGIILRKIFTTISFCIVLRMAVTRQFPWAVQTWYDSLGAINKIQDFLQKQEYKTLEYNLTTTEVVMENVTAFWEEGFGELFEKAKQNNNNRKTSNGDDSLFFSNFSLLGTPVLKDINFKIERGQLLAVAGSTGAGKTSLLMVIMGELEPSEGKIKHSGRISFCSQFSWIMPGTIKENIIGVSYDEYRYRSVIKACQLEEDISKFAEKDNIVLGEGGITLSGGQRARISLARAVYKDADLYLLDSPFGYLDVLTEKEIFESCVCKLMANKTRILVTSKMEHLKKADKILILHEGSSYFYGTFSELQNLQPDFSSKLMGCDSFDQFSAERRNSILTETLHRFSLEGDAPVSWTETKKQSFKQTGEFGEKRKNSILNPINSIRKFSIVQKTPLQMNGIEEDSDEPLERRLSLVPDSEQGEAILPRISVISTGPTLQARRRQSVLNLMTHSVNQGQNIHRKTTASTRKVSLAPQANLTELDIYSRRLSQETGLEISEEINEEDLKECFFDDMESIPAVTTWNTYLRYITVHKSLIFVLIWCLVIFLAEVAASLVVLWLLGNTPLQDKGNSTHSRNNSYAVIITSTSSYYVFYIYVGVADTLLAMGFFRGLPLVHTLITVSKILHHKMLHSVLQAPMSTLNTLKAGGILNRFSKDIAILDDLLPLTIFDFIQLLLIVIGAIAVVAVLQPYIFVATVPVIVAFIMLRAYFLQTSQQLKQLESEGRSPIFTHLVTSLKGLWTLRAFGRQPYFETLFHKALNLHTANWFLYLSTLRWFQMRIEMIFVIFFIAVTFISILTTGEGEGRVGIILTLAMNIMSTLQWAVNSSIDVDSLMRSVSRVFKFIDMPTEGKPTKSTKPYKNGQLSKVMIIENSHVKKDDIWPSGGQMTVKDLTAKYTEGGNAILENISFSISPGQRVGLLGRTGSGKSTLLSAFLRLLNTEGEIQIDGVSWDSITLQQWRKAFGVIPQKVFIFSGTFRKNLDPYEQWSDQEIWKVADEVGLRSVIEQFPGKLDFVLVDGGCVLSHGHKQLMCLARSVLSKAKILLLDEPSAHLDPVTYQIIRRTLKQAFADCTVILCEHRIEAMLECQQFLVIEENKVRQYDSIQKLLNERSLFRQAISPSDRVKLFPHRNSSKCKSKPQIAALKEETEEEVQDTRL

In the case of `CS(=O)(=O)NC(=O)c1cc(C2CCN(CCC(F)(F)F)CC2)c2c(C3CCC3)nn(-c3ccc(F)cc3)c2n1` [Compound 603, 3-cyclobutyl-1-(4-fluorophenyl)-N-(methanesulfonyl)-4-[1-(3,3,3-trifluoropropyl)piperidin-4-yl]-1H-pyrazolo[3,4-b]pyridine-6-carboxamide], the “% Activation” value at ΔF508-CFTR [1] (setting [3]) is listed as 344.65%; at ΔF508-CFTR [2] (setting [5]), 136.2%. In addition, the EC50 on ΔF508-CFTR [1] (setting [4]) amounted to 156 nM; at ΔF508-CFTR [2] (setting [6]), 283 nM.

As for `CN(C)S(=O)(=O)NC(=O)c1cc(C2CCN(CCC(F)(F)F)CC2)c2c(C3CCC3)nn(-c3ccc(F)cc3)c2n1` [Compound 604, 3-cyclobutyl-N-(dimethylsulfamoyl)-1-(4-fluorophenyl)-4-[1-(3,3,3-trifluoropropyl)piperidin-4-yl]-1H-pyrazolo[3,4-b]pyridine-6-carboxamide], the “% Activation” value came out at 268.3% at ΔF508-CFTR [1] (setting [3]) and 86.51% at ΔF508-CFTR [2] (setting [5]). Besides, the EC50 is 300 nM at ΔF508-CFTR [1] (setting [4]) and 490 nM at ΔF508-CFTR [2] (setting [6]).

`COS(=O)(=O)NC(=O)c1cc(N2CCC(N3CCOCC3)CC2)c2c(C3CCC3)nn(-c3ccc(F)cc3)c2n1` [Compound 606, methyl {3-cyclobutyl-1-(4-fluorophenyl)-4-[4-(morpholin-4-yl)piperidin-1-yl]-1H-pyrazolo[3,4-b]pyridine-6-carbonyl}sulfamate]: the figures for the “% Activation” value at ΔF508-CFTR [1] (setting [3]) and at ΔF508-CFTR [2] (setting [5]) were 513.7% and 283.8%, respectively. Besides, the values for the EC50 on ΔF508-CFTR [1] (setting [4]) and on ΔF508-CFTR [2] (setting [6]) were 469 nM and 973 nM, respectively.

In the case of `COCCN1CCN(C2CCN(c3cc(C(=O)NS(=O)(=O)N(C)C)nc4c3c(C3CCC3)nn4-c3ccc(F)cc3)CC2)CC1` [Compound 607, 3-cyclobutyl-N-(dimethylsulfamoyl)-1-(4-fluorophenyl)-4-{4-[4-(2-methoxyethyl)piperazin-1-yl]piperidin-1-yl}-1H-pyrazolo[3,4-b]pyridine-6-carboxamide], the “% Activation” value on ΔF508-CFTR [1] (setting [3]) is listed as 484.3%; on ΔF508-CFTR [2] (setting [5]) it was 272.6%. Moreover, the 50% effective concentration (EC50) on ΔF508-CFTR [1] (setting [4]) is 667 nM; on ΔF508-CFTR [2] (setting [6]), 342 nM.

Turning to `COCCN1CCN(S(=O)(=O)NC(=O)c2cc(N3CCC(COC)CC3)c3c(C4CCC4)nn(-c4ccc(F)cc4)c3n2)CC1` [Compound 610, 3-cyclobutyl-1-(4-fluorophenyl)-N-[4-(2-methoxyethyl)piperazine-1-sulfonyl]-4-[4-(methoxymethyl)piperidin-1-yl]-1H-pyrazolo[3,4-b]pyridine-6-carboxamide], the figures for the “% Activation” value at ΔF508-CFTR [1] (setting [3]) and at ΔF508-CFTR [2] (setting [5]) were 375.5% and 182.13%, respectively. Further, the EC50 turned out to be 119 nM at ΔF508-CFTR [1] (setting [4]) and 186 nM on ΔF508-CFTR [2] (setting [6]).

As for `CN(C)S(=O)(=O)NC(=O)c1cc(C2CCN(C3CCOCC3)CC2)c2c(C3CCC3)nn(-c3ccc(F)cc3)c2n1` [Compound 612, 3-cyclobutyl-N-(dimethylsulfamoyl)-1-(4-fluorophenyl)-4-[1-(oxan-4-yl)piperidin-4-yl]-1H-pyrazolo[3,4-b]pyridine-6-carboxamide], the “% Activation” value on ΔF508-CFTR [1] (setting [3]) turned out to be 320.8%; at ΔF508-CFTR [2] (setting [5]), 108.7%. The EC50 on ΔF508-CFTR [1] (setting [4]) amounted to 3330 nM; on ΔF508-CFTR [2] (setting [6]), 876 nM.

As to `CN(C)S(=O)(=O)NC(=O)c1cc(C2CCN(CC3CC3)CC2)c2c(C3CCC3)nn(-c3ccc(F)cc3)c2n1` [Compound 613, 3-cyclobutyl-4-[1-(cyclopropylmethyl)piperidin-4-yl]-N-(dimethylsulfamoyl)-1-(4-fluorophenyl)-1H-pyrazolo[3,4-b]pyridine-6-carboxamide], the “% Activation” value is 152.9% at ΔF508-CFTR [1] (setting [3]) and 30.09% on ΔF508-CFTR [2] (setting [5]). The EC50 at ΔF508-CFTR [1] (setting [4]) was no less than 10000 nM.

For `CN(C)S(=O)(=O)NC(=O)c1cc(N2CCC(N3CCN(C4COC4)CC3)CC2)c2c(C3CCC3)nn(-c3ccc(F)cc3)c2n1` [Compound 615, 3-cyclobutyl-N-(dimethylsulfamoyl)-1-(4-fluorophenyl)-4-{4-[4-(oxetan-3-yl)piperazin-1-yl]piperidin-1-yl}-1H-pyrazolo[3,4-b]pyridine-6-carboxamide], the entries for the “% Activation” value at ΔF508-CFTR [1] (setting [3]) and on ΔF508-CFTR [2] (setting [5]) were 450.85% and 255.3%, respectively. Moreover, the figures for the EC50 at ΔF508-CFTR [1] (setting [4]) and on ΔF508-CFTR [2] (setting [6]) were 130 nM and 482 nM, respectively.

Regarding `CN(C)S(=O)(=O)NC(=O)c1cc(OCC2CCN(C3CC3)CC2)c2c(C3CCC3)nn(-c3ccc(F)cc3)c2n1` [Compound 616, 3-cyclobutyl-4-[(1-cyclopropylpiperidin-4-yl)methoxy]-N-(dimethylsulfamoyl)-1-(4-fluorophenyl)-1H-pyrazolo[3,4-b]pyridine-6-carboxamide], the figures for the “% Activation” value at ΔF508-CFTR [1] (setting [3]) and on ΔF508-CFTR [2] (setting [5]) were 341.15% and 144.05%, respectively. Besides, the EC50 at ΔF508-CFTR [1] (setting [4]) was found to be 294 nM; at ΔF508-CFTR [2] (setting [6]) it was 348 nM.

For the compound `CN(C)S(=O)(=O)NC(=O)c1cc(OCC2CCN(C3CCC3)CC2)c2c(C3CCC3)nn(-c3ccc(F)cc3)c2n1` [Compound 617, 3-cyclobutyl-4-[(1-cyclobutylpiperidin-4-yl)methoxy]-N-(dimethylsulfamoyl)-1-(4-fluorophenyl)-1H-pyrazolo[3,4-b]pyridine-6-carboxamide], the “% Activation” value came out at 324.25% at ΔF508-CFTR [1] (setting [3]) and 137.1% on ΔF508-CFTR [2] (setting [5]). In addition, the values for the EC50 at ΔF508-CFTR [1] (setting [4]) and on ΔF508-CFTR [2] (setting [6]) were 978 nM and 871 nM, respectively.

Take `CN(C)S(=O)(=O)NC(=O)c1cc(OCC2CCN(C3CCCCC3)CC2)c2c(C3CCC3)nn(-c3ccc(F)cc3)c2n1` [Compound 618, 3-cyclobutyl-4-[(1-cyclohexylpiperidin-4-yl)methoxy]-N-(dimethylsulfamoyl)-1-(4-fluorophenyl)-1H-pyrazolo[3,4-b]pyridine-6-carboxamide]: the results for the “% Activation” value at ΔF508-CFTR [1] (setting [3]) and on ΔF508-CFTR [2] (setting [5]) were 295.9% and 112.8%, respectively. In addition, the EC50 at ΔF508-CFTR [1] (setting [4]) came out at 702 nM; at ΔF508-CFTR [2] (setting [6]) it was 421 nM.

For the compound `CN(C)S(=O)(=O)NC(=O)c1cc(OCC2CCN(C3CCOCC3)CC2)c2c(C3CCC3)nn(-c3ccc(F)cc3)c2n1` [Compound 619, 3-cyclobutyl-N-(dimethylsulfamoyl)-1-(4-fluorophenyl)-4-{[1-(oxan-4-yl)piperidin-4-yl]methoxy}-1H-pyrazolo[3,4-b]pyridine-6-carboxamide], the “% Activation” value is given as 277.25% on ΔF508-CFTR [1] (setting [3]) and 102.8% at ΔF508-CFTR [2] (setting [5]). For the same compound, the EC50 at ΔF508-CFTR [1] (setting [4]) turned out to be 375 nM; at ΔF508-CFTR [2] (setting [6]), 680 nM.

Consider `CCOc1nccc(-n2nc(C3CCC3)c3c(N4CCC(N5CCOCC5)CC4)cc(C(=O)NS(=O)(=O)N(C)C)nc32)n1` [Compound 622, 3-cyclobutyl-N-(dimethylsulfamoyl)-1-(2-ethoxypyrimidin-4-yl)-4-[4-(morpholin-4-yl)piperidin-1-yl]-1H-pyrazolo[3,4-b]pyridine-6-carboxamide], for which the results for the “% Activation” value at ΔF508-CFTR [1] (setting [3]) and on ΔF508-CFTR [2] (setting [5]) were 251.25% and 89.445%, respectively. Besides, the values for the EC50 on ΔF508-CFTR [1] (setting [4]) and at ΔF508-CFTR [2] (setting [6]) were 309 nM and 568 nM, respectively.

As for `CC(C)Oc1nn(C2CCCCC2)c2nc(C(=O)NS(C)(=O)=O)cc(-c3ccc(C(=O)N4CC5CNCC5C4)cc3)c12` (stereo not drawn) [Compound 631, 1-cyclohexyl-4-[4-(hexahydropyrrolo[3,4-c]pyrrole-2(1H)-carbonyl)phenyl]-N-(methanesulfonyl)-3-[(propan-2-yl)oxy]-1H-pyrazolo[3,4-b]pyridine-6-carboxamide], the “% Activation” value on ΔF508-CFTR [1] (setting [3]) is 352.63%; on ΔF508-CFTR [2] (setting [5]), 122.53%. For the same compound, the results for the EC50 on ΔF508-CFTR [1] (setting [4]) and on ΔF508-CFTR [2] (setting [6]) were 2990 nM and 3340 nM, respectively.

Take `COC1CCN(Cc2ccc(-c3cc(C(=O)NS(C)(=O)=O)nc4c3c(OC(C)C)nn4C3CCCCC3)cc2)CC1` [Compound 635, 1-cyclohexyl-N-(methanesulfonyl)-4-{4-[(4-methoxypiperidin-1-yl)methyl]phenyl}-3-[(propan-2-yl)oxy]-1H-pyrazolo[3,4-b]pyridine-6-carboxamide]: the figures for the “% Activation” value at ΔF508-CFTR [1] (setting [3]) and on ΔF508-CFTR [2] (setting [5]) were 449.25% and 216.38%, respectively. Besides, the EC50 on ΔF508-CFTR [1] (setting [4]) amounted to 73.9 nM; at ΔF508-CFTR [2] (setting [6]), 155 nM.

In the case of `CC(C)Oc1nn(C2CCCCC2)c2nc(C(=O)NS(C)(=O)=O)cc(-c3ccc(CN4CC5CN(C)CC5C4)cc3)c12` (stereo not drawn) [Compound 636, 1-cyclohexyl-N-(methanesulfonyl)-4-{4-[(5-methylhexahydropyrrolo[3,4-c]pyrrol-2(1H)-yl)methyl]phenyl}-3-[(propan-2-yl)oxy]-1H-pyrazolo[3,4-b]pyridine-6-carboxamide], the “% Activation” value at ΔF508-CFTR [1] (setting [3]) is given as 388.85%; on ΔF508-CFTR [2] (setting [5]), 182.7%. Moreover, the EC50 is 434 nM at ΔF508-CFTR [1] (setting [4]) and 573 nM at ΔF508-CFTR [2] (setting [6]).

For the compound `CC(C)Oc1nn(C2CCCCC2)c2nc(C(=O)NS(C)(=O)=O)cc(-c3ccc(C(=O)N4CC5CN(C)CC5C4)cc3)c12` (stereo not drawn) [Compound 637, 1-cyclohexyl-N-(methanesulfonyl)-4-[4-(5-methylhexahydropyrrolo[3,4-c]pyrrole-2(1H)-carbonyl)phenyl]-3-[(propan-2-yl)oxy]-1H-pyrazolo[3,4-b]pyridine-6-carboxamide], the figures for the “% Activation” value at ΔF508-CFTR [1] (setting [3]) and at ΔF508-CFTR [2] (setting [5]) were 413.4% and 191.88%, respectively. In addition, the values for the EC50 on ΔF508-CFTR [1] (setting [4]) and at ΔF508-CFTR [2] (setting [6]) were 971 nM and 2500 nM, respectively.

For `CC(C)Oc1nn(C2CCCCC2)c2nc(C(=O)NS(C)(=O)=O)cc(-c3ccc(C4(C#N)CCN(C)CC4)cc3)c12` [Compound 639, 4-[4-(4-cyano-1-methylpiperidin-4-yl)phenyl]-1-cyclohexyl-N-(methanesulfonyl)-3-[(propan-2-yl)oxy]-1H-pyrazolo[3,4-b]pyridine-6-carboxamide], the figures for the EC50 on ΔF508-CFTR [1] and on ΔF508-CFTR [2] were 74.5 nM and 132 nM, respectively.

(Values after patent publication US10259810B2, “N-sulfonylated pyrazolo[3,4-b]pyridin-6-carboxamides and method of use” (AbbVie S.à.r.l., priority 2015, dated 2019).)
